Legend:
Assay in all cases: relative viability (nuclei count vs DMSO), 5 days (fraction); higher = more cells survive
[1] = compound: COc1ccc(-c2ccc3c(N4CCOC[C@@H]4C)nc(N4CCOC[C@@H]4C)nc3n2)cc1CO [AZD8055] + Nc1ncn([C@H]2C[C@H](O)[C@@H](CO)O2)c(=O)n1 [Decitabine] (partner 2 µM)
Summary of the method: (§1)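 Relative viability equals treated-well nuclei counts divided by vehicle-well nuclei counts. Counts came from 4× images of lung cancer cell lines grown in 1536-well plates for 5 days after pin-tool dosing on the day after seeding. Dosing used one drug alone or a fixed anchor-drug dose plus five library-drug doses (not always all listed) in √10 steps, and values are medians of duplicate plates.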

[2] = compound: COc1ccc(-c2ccc3c(N4CCOC[C@@H]4C)nc(N4CCOC[C@@H]4C)nc3n2)cc1CO [AZD8055] + CS(=O)(=O)CCNCc1ccc(-c2ccc3ncnc(Nc4ccc(OCc5cccc(F)c5)c(Cl)c4)c3c2)o1 [Lapatinib] (partner 2 µM)
Summary of the method: as §1

[3] = compound: COc1ccc(-c2ccc3c(N4CCOC[C@@H]4C)nc(N4CCOC[C@@H]4C)nc3n2)cc1CO [AZD8055] + Cc1cc(Nc2cc(N3CCN(C)CC3)nc(Sc3ccc(NC(=O)C4CC4)cc3)n2)n[nH]1 [Tozasertib] (partner 0.1 µM)
Summary of the method: as §1

[4] = compound: COc1ccc(-c2ccc3c(N4CCOC[C@@H]4C)nc(N4CCOC[C@@H]4C)nc3n2)cc1CO [AZD8055] + C[C@@H](Oc1cc(-c2cnn(C3CCNCC3)c2)cnc1N)c1c(Cl)ccc(F)c1Cl [Crizotinib] (partner 1 µM)
Summary of the method: as §1

| Cell Line | relative viability ([1]; first compound 0.01 µM) | relative viability ([1]; first compound 0.03162 µM) | relative viability ([1]; first compound 0.1 µM) | relative viability ([1]; first compound 0.3162 µM) | relative viability ([1]; first compound 1 µM) | relative viability ([2]; first compound 0.01 µM) | relative viability ([2]; first compound 0.03162 µM) | relative viability ([2]; first compound 0.1 µM) | relative viability ([2]; first compound 0.3162 µM) | relative viability ([2]; first compound 1 µM) | relative viability ([3]; first compound 0.01 µM) | relative viability ([3]; first compound 0.03162 µM) | relative viability ([3]; first compound 0.1 µM) | relative viability ([3]; first compound 0.3162 µM) | relative viability ([3]; first compound 1 µM) | relative viability ([4]; first compound 0.01 µM) | relative viability ([4]; first compound 0.03162 µM) | relative viability ([4]; first compound 0.1 µM) | relative viability ([4]; first compound 0.3162 µM) | relative viability ([4]; first compound 1 µM) |
| --- | --- | --- | --- | --- | --- | --- | --- | --- | --- | --- | --- | --- | --- | --- | --- | --- | --- | --- | --- | --- |
| PC-3 [JPC-3] | 0.902 | 0.912 | 0.797 | 0.758 | 0.614 | 0.392 | 0.393 | 0.333 | 0.322 | 0.302 | 0.864 | 0.993 | 0.978 | 0.614 | 0.431 | 1.06 | 1.05 | 1.01 | 0.712 | 0.53 |
| PC-14 | 0.288 | 0.227 | 0.238 | 0.186 | 0.159 | 0.315 | 0.204 | 0.244 | 0.16 | 0.148 | 0.834 | 0.762 | 0.535 | 0.109 | 0.0948 | 1.06 | 1.02 | 0.771 | 0.448 | 0.21 |
| RERF-LC-KJ | 0.589 | 0.68 | 0.666 | 0.383 | 0.395 | 0.895 | 0.726 | 0.637 | 0.437 | 0.345 | 0.519 | 0.556 | 0.421 | 0.333 | 0.299 | 0.863 | 0.974 | 0.756 | 0.578 | 0.452 |
| SK-LU-1 | 0.64 | 0.547 | 0.568 | 0.422 | 0.343 | 0.866 | 0.761 | 0.487 | 0.376 | 0.332 | 0.311 | 0.333 | 0.287 | 0.217 | 0.213 | 0.743 | 0.767 | 0.335 | 0.475 | 0.376 |
| SK-MES-1 | 0.395 | 0.34 | 0.333 | 0.269 | 0.246 | 0.444 | 0.387 | 0.371 | 0.274 | 0.318 | 0.904 | 0.837 | 0.625 | 0.434 | 0.274 | 0.94 | 0.944 | 0.781 | 0.494 | 0.318 |
| SW 1573 | 0.496 | 0.316 | 0.38 | 0.195 | 0.189 | 1.25 | 0.829 | 1.04 | 0.519 | 0.27 | 0.174 | 0.229 | 0.241 | 0.155 | 0.135 | 0.777 | 0.812 | 0.449 | 0.317 | 0.21 |
| UMC-11 | 0.575 | 0.472 | 0.492 | 0.317 | 0.364 | 0.832 | 0.573 | 0.578 | 0.276 | 0.282 | 0.196 | 0.224 | 0.208 | 0.2 | 0.211 | 0.543 | 0.535 | 0.321 | 0.29 | 0.189 |
